According to publication PMC11923649, “Novel C-2 Aromatic Heterocycle-Substituted Triterpenoids Inhibit Hedgehog Signaling in GLI1 Overexpression Cancer Cells” (ACS Omega, 2025):

How the values were obtained:
[1] = tested on: A549 (lung adenocarcinoma); assay: MTS cytotoxicity assay, 72 h, A549; type: cell-based; settings: Homo sapiens, A549, 72 h
Outline: (§1)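 IC50 values come from a tetrazolium (MTS) read-out at 490 nm taken after continuous 72 h exposure to a twofold dilution series from 50 down to 0.0975 μmol/L, with compound added one day after seeding.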

DU-145 (prostate cancer) = assay: MTS cytotoxicity assay, 72 h, DU-145; type: cell-based, human; settings: Homo sapiens, DU-145, 72 h, Table 1
Outline: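 Cells were exposed to compounds for 72 h at 50–0.0975 μmol/L (2-fold dilutions), then MTS/phenazine methosulfate was added for 1–4 h. Absorbance read at 490 nm; IC50 derived from concentration-response.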

U2OS = assay: MTS cytotoxicity assay, 72 h, U2OS; type: cell-based; settings: Homo sapiens
CCRF-CEM = assay: MTS cytotoxicity assay, 72 h, CCRF-CEM; type: cell-based; settings: Table 1; for IC50: Homo sapiens, CCRF-CEM, 72 h, MTS; for SI (selectivity index): IC50 of CCRF-CEM line vs average of both fibroblasts (BJ and MRC-5)
Outline: as §1

[2] = tested on: BJ human skin fibroblasts; assay: MTS cytotoxicity assay, 72 h, BJ fibroblasts; type: cell-based; settings: Homo sapiens, Skin fibroblast, normal fibroblasts
Outline: as §1

[3] = Microsomal stability, human liver microsomes with NADPH; type: in vitro ADME; settings: for Category of Intrinsic clearence: calculated from microsomal stability, category per ref 39; for Microsomal stability % Compound remaining 15 min / Microsomal stability % Compound remaining 30 min / Microsomal stability % Compound remaining 60 min: human liver microsomes, NADPH
Protocol: Data from a plasma protein binding study can inform about distribution into tissues of the body and reduction in the amount of drug available to be metabolized or cleared from the body. The measurement of plasma protein binding was performed using a Rapid Equilibrium Dialysis device; 11a and 11b compounds reported a percent of fraction bound around 90%. For the microsomal stability assay, human liver microsomes and NADPH cofactor were used to assess phase I oxidation by cytochrome P450 and flavin monooxygenases. The intrinsic clearance calculated from the microsomal stability assay indicated the medium category for both derivatives (Table 3).

[4] = MDCK-MDR1 permeability assay; type: in vitro ADME; settings: dog, MDCK-MDR1; for Papp A→B: cm/s, read-out: MDCK-MDR1 Papp (×10^−6)
Text: (§2) The Parallel Artificial Membrane Permeability Assay (PAMPA) has emerged as a primary screen for determining passive transcellular permeability. […] The Caco-2 and MDCK-MDR1 permeability assays are established models of intestinal[37] and blood-brain barriers, respectively.[38]

MDCK-MDR1 monolayer = assay: MDCK-MDR1 permeability assay; type: in vitro ADME
Text: as §2

MDR1 = assay: MDCK-MDR1 permeability assay; type: in vitro ADME; settings: dog, MDCK-MDR1; B–A / A–B
Text: as §2

| Structure (SMILES) | IC50 ([1]; Table 1) | IC50 ([1]; full Table S1) | IC50 (DU-145 (prostate cancer)) | IC50 (U2OS; Table 1) | IC50 (U2OS; full Table S1) | IC50 (CCRF-CEM) | SI (selectivity index) (CCRF-CEM) | IC50 ([2]; Table 1) | IC50 ([2]; full Table S1) | Category of Intrinsic clearence [3] | Microsomal stability % Compound remaining 15 min [3] | Microsomal stability % Compound remaining 30 min [3] | Microsomal stability % Compound remaining 60 min [3] | recovery [4] | Papp A→B [4] | MDCK-MDR1 Active efflux (MDCK-MDR1 monolayer) | efflux ratio (MDR1) |
| --- | --- | --- | --- | --- | --- | --- | --- | --- | --- | --- | --- | --- | --- | --- | --- | --- | --- |
| C=C(C)[C@@H]1CC[C@]2(C(=O)O)CC[C@]3(C)C(CCC4[C@@]5(C)C=C(c6ccoc6)C(=O)C(C)(C)C5CC[C@]43C)C12 (stereo partly shown) [Compound 11b, 2-(Furan-3-yl)-3-oxolupa-1,20(29)-dien-28-oic acid] | 12 µM | 12.1 µM | 5.7 µM | 26 µM | 26.3 µM | 6 µM | 5 | 37 µM | 36.6 µM | Medium | 84% | 69% | 51% | 94.7% | 1.85 ×10⁻⁶ cm/s | Yes | 2.46 |
| C=C(C)[C@@H]1CC[C@]2(C(=O)O)CC[C@]3(C)C(CCC4[C@@]5(C)C=C(c6ccco6)C(=O)C(C)(C)C5CC[C@]43C)C12 (stereo partly shown) [Compound 11a, 2-(Furan-2-yl)-3-oxolupa-1,20(29)-dien-28-oic acid] | 12 µM | 12.1 µM | 7.9 µM | 21 µM | 20.9 µM | 8.7 µM | 3.8 | 39 µM | 39.1 µM | Medium | 88% | 72% | 52% | 90.4% | 9.15 ×10⁻⁶ cm/s | No (less than or very close to the limit of active and passive efflux (≤2)) | 1.53 |
